Tests used:
human V1a receptor = human V1a receptor (Homo sapiens (Human), UniProt P37288); assay: Cellular in vitro assay for determining vasopressin receptor activity (V1a, aequorin luminescence); format: cell-based; conditions: for IC50: CHO cell line transfected with human V1a receptor, [Arg8]-vasopressin at EC50 concentration, read-out: IC50 hV1a; for ratio IC50 hV2/hV1a: selectivity, IC50 hV2 divided by IC50 hV1a
Experimental: (§1) B-1. Cellular In Vitro Assay for Determining Vasopressin Receptor Activity
(§2) The identification of agonists and antagonists of the V1a and V2 vasopressin receptors from humans, rats and dogs as well as the quantification of the activity of the compounds of the invention is carried out using recombinant cell lines. These cell lines originally derive from a hamster's ovary epithelial cell (Chinese Hamster Ovary, CHO K1, ATCC: American Type Culture Collection, Manassas, Va. 20108, USA). The test cell lines constitutively express the human, rat or dog V1a or V2 receptors. In case of the Gαq-coupled V1a receptors, cells are also stably transfected with a modified form of the calcium-sensitive photoproteins aequorin (human and rat V1a) or obe-lin (dog V1a), which, after reconstitution with the cofactor coelenterazine, emit light when there are increases in free calcium concentrations [Rizzuto R, Simpson A W, Brini M, Pozzan T, Nature 358, 325-327 (1992); Illarionov B A, Bondar V S, Illarionova V A, Vysotski E S, Gene 153 (2), 273-274 (1995)]. The resulting vasopressin receptor cells react to stimulation of the recombinantly expressed Via receptors by intracellular release of calcium ions, which can be quantified by the resulting photoprotein luminescence. The Gs-coupled V2 receptors are stably transfected into cell lines expressing the gene for firefly luciferase under control of a CRE-responsible promoter. Activation of V2 receptors induces the activation of the CRE-responsive promoter via cAMP increase, thereby inducing the expression of firefly luciferase. The light emitted by photoproteins of V1a cell lines as well as the light emitted by firefly luciferase of V2 cell lines corresponds to the activation or inhibition of the respective vasopressin receptor. The bioluminescence of the cell lines is detected using a suitable luminometer [Milligan G, Marshall F, Rees S, Trends in Pharmacological Sciences 17, 235-237 (1996)].
Vasopressin V1a Receptor Cell Lines:
On the day before the assay, the cells are plated out in culture medium (DMEM/F12, 2% FCS, 2 mM glutamine, 10 mM HEPES, 5 μg/ml coelenterazine) in 384-well microtiter plates and kept in a cell incubator (96% humidity, 5% v/v CO2, 37° C.). On the day of the assay, test compounds in various concentrations are placed for 10 minutes in the wells of the microtiter plate before the agonist [Arg^8]-vasopressin at EC50 concentration is added. The resulting light signal is measured immediately in a luminometer.
(§3) Table 1A below lists individual IC50 values for the compounds of the invention (including racemic mixtures as well as separated enantiomers) that were obtained from cell lines transfected with the human Via or V2 receptor: […]

human V2 receptor = human V2 receptor (Homo sapiens (Human), UniProt P30518); assay: Cellular in vitro assay for determining vasopressin receptor activity (V2, CRE-luciferase); format: cell-based; conditions: CHO cell line transfected with human V2 receptor; [Arg8]-vasopressin at EC50 concentration; read-out: IC50 hV2
human V2 receptor, sequence (P30518 whole entry): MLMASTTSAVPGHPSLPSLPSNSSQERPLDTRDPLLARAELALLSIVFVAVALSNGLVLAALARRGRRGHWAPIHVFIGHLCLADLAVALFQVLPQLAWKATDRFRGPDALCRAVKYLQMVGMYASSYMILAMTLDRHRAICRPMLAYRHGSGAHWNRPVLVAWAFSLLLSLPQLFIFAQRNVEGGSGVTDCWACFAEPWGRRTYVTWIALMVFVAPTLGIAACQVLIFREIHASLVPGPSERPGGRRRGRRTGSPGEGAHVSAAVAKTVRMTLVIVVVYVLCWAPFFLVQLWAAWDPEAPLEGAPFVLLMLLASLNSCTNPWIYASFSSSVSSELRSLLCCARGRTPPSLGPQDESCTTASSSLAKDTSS
Experimental: as §1, §2
Vasopressin V2 Receptor Cell Lines:
On the day before the assay, the cells are plated out in culture medium (DMEM/F12, 2% FCS, 2 mM glutamine, 10 mM HEPES) in 384-well microtiter plates and kept in a cell incubator (96% humidity, 5% v/v CO2, 37° C.). On the day of the assay, test compounds in various concentrations and the agonist [Arg^8]-vasopressin at EC50 concentration are added together to the wells, and plates are incubated for 3 hours in a cell incubator. Upon addition of the cell lysis reagent Triton™ and the substrate luciferin, luminescence of firefly luciferase is measured in a luminometer.
as §3

human V1a receptor, sequence (P37288 whole entry): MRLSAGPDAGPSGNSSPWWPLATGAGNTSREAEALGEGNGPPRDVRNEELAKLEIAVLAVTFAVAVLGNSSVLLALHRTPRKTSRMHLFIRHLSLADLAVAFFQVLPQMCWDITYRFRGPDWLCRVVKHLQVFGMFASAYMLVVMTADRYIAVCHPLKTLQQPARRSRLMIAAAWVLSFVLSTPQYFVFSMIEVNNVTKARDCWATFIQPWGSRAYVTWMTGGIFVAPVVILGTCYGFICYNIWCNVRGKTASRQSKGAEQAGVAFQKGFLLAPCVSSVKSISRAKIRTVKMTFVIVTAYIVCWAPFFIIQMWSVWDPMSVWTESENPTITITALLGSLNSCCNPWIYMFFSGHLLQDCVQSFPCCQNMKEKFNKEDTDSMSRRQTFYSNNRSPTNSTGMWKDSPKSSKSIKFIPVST

IC50 (human V1a receptor) [nM]	ratio IC50 hV2/hV1a (human V1a receptor)	IC50 (human V2 receptor) [nM]	SMILES
5.65	36.0	203	NC1(C(=O)NC(Cn2c(-c3ccc(Cl)cc3)nn(Cc3ncn(-c4ncccc4Cl)n3)c2=O)C(F)(F)F)CCC1 (racemic) [Example 29, 1-Amino-N-{3-[3-(4-chlorophenyl)-1-{[1-(3-chloropyridin-2-yl)-1H-1,2,4-triazol-3-yl]methyl}-5-oxo-1,5-dihydro-4H-1,2,4-triazol-4-yl]-1,1,1-trifluoropropan-2-yl}cyclobutanecarboxamide]
0.72	82.2	58.8	O=C(NC(Cn1c(-c2ccc(Cl)cc2)nn(Cc2ncn(-c3ncccc3C(F)(F)F)n2)c1=O)C(F)(F)F)C1CC(F)(F)C1 (racemic) [Example 63, N-{3-[3-(4-Chlorophenyl)-5-oxo-1-({1-[3-(trifluoromethyl)pyridin-2-yl]-1H-1,2,4-triazol-3-yl}methyl)-1,5-dihydro-4H-1,2,4-triazol-4-yl]-1,1,1-trifluoropropan-2-yl}-3,3-difluorocyclobutane-1-carboxamide]
3.4	32.1	109	O=C(CC(F)=C(F)F)NC(Cn1c(-c2ccc(Cl)cc2)nn(Cc2ncn(-c3ncccc3Cl)n2)c1=O)C(F)(F)F (racemic) [Example 31, N-{3-[3-(4-Chlorophenyl)-1-{[1-(3-chloropyridin-2-yl)-1H-1,2,4-triazol-3-yl]methyl}-5-oxo-1,5-dihydro-4H-1,2,4-triazol-4-yl]-1,1,1-trifluoropropan-2-yl}-3,4,4-trifluorobut-3-enamide]
6.15	86.2	530	COCC(=O)NC(Cn1c(-c2ccc(Cl)cc2)nn(Cc2ncn(-c3ncccc3C(F)(F)F)n2)c1=O)C(F)(F)F (racemic) [Example 68, N-{3-[3-(4-Chlorophenyl)-5-oxo-1-({1-[3-(trifluoromethyl)pyridin-2-yl]-1H-1,2,4-triazol-3-yl}methyl)-1,5-dihydro-4H-1,2,4-triazol-4-yl]-1,1,1-trifluoropropan-2-yl}-2-methoxyacetamide]
6.95	37.4	260	CCC(=O)NC(Cn1c(-c2ccc(Cl)cc2)nn(Cc2ncn(-c3ncccc3Cl)n2)c1=O)C(F)(F)F (racemic) [Example 13, N-{3-[3-(4-Chlorophenyl)-1-{[1-(3-chloropyridin-2-yl)-1H-1,2,4-triazol-3-yl]methyl}-5-oxo-1,5-dihydro-4H-1,2,4-triazol-4-yl]-1,1,1-trifluoropropan-2-yl}propanamide]
–	56.5	–	O=C(NC(Cn1c(-c2ccc(Cl)cc2)nn(Cc2ncn(-c3ncccc3Cl)n2)c1=O)C(F)(F)F)[C@@H]1C[C@H](F)CN1 (stereo in doubt) [Example 48, N-{3-[3-(4-Chlorophenyl)-1-{[1-(3-chloropyridin-2-yl)-1H-1,2,4-triazol-3-yl]methyl}-5-oxo-1,5-dihydro-4H-1,2,4-triazol-4-yl]-1,1,1-trifluoropropan-2-yl}-4-fluoro-prolinamide]
–	9.0	–	O=C(NC(Cn1c(-c2ccc(Cl)cc2)nn(Cc2ncn(-c3ncccc3Cl)n2)c1=O)C(F)(F)F)C1(C(F)(F)F)CC1 (stereo not drawn) [Example 42, N-{3-[3-(4-Chlorophenyl)-1-{[1-(3-chloropyridin-2-yl)-1H-1,2,4-triazol-3-yl]methyl}-5-oxo-1,5-dihydro-4H-1,2,4-triazol-4-yl]-1,1,1-trifluoropropan-2-yl}-1-(trifluoromethyl)cyclopropane-carboxamide]
–	40.9	–	O=C(CCC(F)(F)F)NC(Cn1c(-c2ccc(Cl)cc2)nn(Cc2ncn(-c3ncccc3Cl)n2)c1=O)C(F)(F)F (racemic) [Example 34, N-{3-[3-(4-Chlorophenyl)-1-{[1-(3-chloropyridin-2-yl)-1H-1,2,4-triazol-3-yl]methyl}-5-oxo-1,5-dihydro-4H-1,2,4-triazol-4-yl]-1,1,1-trifluoropropan-2-yl}-4,4,4-trifluorobutanamide]
–	42.8	–	CS(=O)(=O)CC(=O)NC(Cn1c(-c2ccc(Cl)cc2)nn(Cc2ncn(-c3ncccc3Cl)n2)c1=O)C(F)(F)F (racemic) [Example 46, N-{3-[3-(4-Chlorophenyl)-1-{[1-(3-chloropyridin-2-yl)-1H-1,2,4-triazol-3-yl]methyl}-5-oxo-1,5-dihydro-4H-1,2,4-triazol-4-yl]-1,1,1-trifluoropropan-2-yl}-2-(methylsulfonyl)acetamide]
–	26.1	–	O=C(CCC(F)(F)F)NC(Cn1c(-c2ccc(Cl)cc2)nn(Cc2ncn(-c3ncccc3Cl)n2)c1=O)C(F)(F)F (racemic) [Example 33, N-{3-[3-(4-Chlorophenyl)-1-{[1-(3-chloropyridin-2-yl)-1H-1,2,4-triazol-3-yl]methyl}-5-oxo-1,5-dihydro-4H-1,2,4-triazol-4-yl]-1,1,1-trifluoropropan-2-yl}-4,4,4-trifluorobutanamide]
–	110.9	–	O=C(NC(Cn1c(-c2ccc(Cl)cc2)nn(Cc2ncn(-c3ncccc3Cl)n2)c1=O)C(F)(F)F)C1CS(=O)(=O)C1 (racemic) [Example 39, N-{3-[3-(4-Chlorophenyl)-1-{[1-(3-chloropyridin-2-yl)-1H-1,2,4-triazol-3-yl]methyl}-5-oxo-1,5-dihydro-4H-1,2,4-triazol-4-yl]-1,1,1-trifluoropropan-2-yl}thietane-3-carboxamide 1,1-dioxide]
–	26.7	–	O=C(NC(Cn1c(-c2ccc(Cl)cc2)nn(Cc2ncn(-c3ncccc3Cl)n2)c1=O)C(F)(F)F)C1CS(=O)(=O)C1 (racemic) [Example 40, N-{3-[3-(4-Chlorophenyl)-1-{[1-(3-chloropyridin-2-yl)-1H-1,2,4-triazol-3-yl]methyl}-5-oxo-1,5-dihydro-4H-1,2,4-triazol-4-yl]-1,1,1-trifluoropropan-2-yl}thietane-3-carboxamide 1,1-dioxide]
–	112.7	–	O=C(NC(Cn1c(-c2ccc(Cl)cc2)nn(Cc2ncn(-c3ncccc3Cl)n2)c1=O)C(F)(F)F)[C@@H]1C[C@@H](F)CN1 (stereo in doubt) [Example 49, N-{3-[3-(4-Chlorophenyl)-1-{[1-(3-chloropyridin-2-yl)-1H-1,2,4-triazol-3-yl]methyl}-5-oxo-1,5-dihydro-4H-1,2,4-triazol-4-yl]-1,1,1-trifluoropropan-2-yl}-4-fluoro-prolinamide]
–	9.8	–	CS(=O)(=O)CC(=O)NC(Cn1c(-c2ccc(Cl)cc2)nn(Cc2ncn(-c3ncccc3Cl)n2)c1=O)C(F)(F)F (racemic) [Example 45, N-{3-[3-(4-Chlorophenyl)-1-{[1-(3-chloropyridin-2-yl)-1H-1,2,4-triazol-3-yl]methyl}-5-oxo-1,5-dihydro-4H-1,2,4-triazol-4-yl]-1,1,1-trifluoropropan-2-yl}-2-(methylsulfonyl)acetamide]

SMILES	IC50 (human V1a receptor) [nM]	ratio IC50 hV2/hV1a (human V1a receptor)	IC50 (human V2 receptor) [nM]
O=C(CF)NC(Cn1c(-c2ccc(Cl)cc2)nn(Cc2ncn(-c3ncccc3C(F)(F)F)n2)c1=O)C(F)(F)F (racemic) [Example 61, N-{3-[3-(4-Chlorophenyl)-5-oxo-1-({1-[3-(trifluoromethyl)pyridin-2-yl]-1H-1,2,4-triazol-3-yl}methyl)-1,5-dihydro-4H-1,2,4-triazol-4-yl]-1,1,1-trifluoropropan-2-yl}-2-fluoroacetamide]	50	76.0	3800
